# Source: the supplement of paper PMC10307832
# Key:
# Experiment in all cases: relative viability (nuclei count vs DMSO), 5 days (fraction); higher = more cells survive
# [1] = compound: Nc1ncn([C@H]2C[C@H](O)[C@@H](CO)O2)c(=O)n1 [Decitabine] + CC(C)C[C@H](NC(=O)[C@H](Cc1ccccc1)NC(=O)c1cnccn1)B(O)O [Bortezomib] (partner 0.002 µM)
# Method in brief: (§1)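 For relative viability, nuclei counts in treated wells were divided by those in vehicle wells. Lung cancer cell lines had been pin-tool dosed in 1536-well plates the day after seeding and cultured for 5 days, then fixed and stained in one step (final 0.05% Triton X-100, 1% formaldehyde, 1 ug/ml Hoechst) and imaged at 4×. Doses were one drug alone or a fixed anchor-drug dose plus five library-drug doses (not always all listed) in √10 steps, and values are duplicate-plate medians.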
# [2] = compound: O=C(C[C@H]1NCCC[C@@H]1O)Cn1cnc2cc(Br)c(Cl)cc2c1=O (racemic) [Halofuginone] + Nc1ncn([C@H]2C[C@H](O)[C@@H](CO)O2)c(=O)n1 [Decitabine] (partner 2 µM)
# Method in brief: as §1
# [3] = compound: Nc1ncn([C@H]2C[C@H](O)[C@@H](CO)O2)c(=O)n1 [Decitabine] + CCNC(=O)c1noc(-c2cc(C(C)C)c(O)cc2O)c1-c1ccc(CN2CCOCC2)cc1 [Luminespib] (partner 0.01 µM)
# Method in brief: as §1
# [4] = compound: COc1cc2c(Oc3ccc4[nH]c(C)cc4c3F)ncnc2cc1OCCCN1CCCC1 [Cediranib] + N=C(N)NC(=N)NCCc1ccccc1 [Phenformin] (partner 250 µM)
# Method in brief: as §1
Cell Line,relative viability ([1]; first compound 0.04 µM),relative viability ([1]; first compound 0.1265 µM),relative viability ([1]; first compound 0.4 µM),relative viability ([1]; first compound 1.265 µM),relative viability ([1]; first compound 4 µM),relative viability ([2]; first compound 0.001 µM),relative viability ([2]; first compound 0.003162 µM),relative viability ([2]; first compound 0.01 µM),relative viability ([2]; first compound 0.03162 µM),relative viability ([2]; first compound 0.1 µM),relative viability ([3]; first compound 0.04 µM),relative viability ([3]; first compound 0.1265 µM),relative viability ([3]; first compound 0.4 µM),relative viability ([3]; first compound 1.265 µM),relative viability ([3]; first compound 4 µM),relative viability ([4]; first compound 0.04 µM),relative viability ([4]; first compound 0.1265 µM),relative viability ([4]; first compound 0.4 µM),relative viability ([4]; first compound 1.265 µM),relative viability ([4]; first compound 4 µM)
LOU-NH91,0.412,0.471,0.436,0.512,0.523,0.809,0.818,0.787,0.802,0.817,0.323,0.344,0.358,0.299,0.35,0.688,0.986,0.696,0.625,0.673
LU99A,1.06,1.26,1.31,0.989,0.949,0.783,1.01,0.846,0.769,0.879,0.248,0.24,0.318,0.251,0.24,0.726,0.589,0.75,0.734,0.924
LXF-289,0.775,0.714,0.503,0.347,0.324,0.395,0.393,0.383,0.418,0.381,0.418,0.313,0.261,0.222,0.196,0.565,0.404,0.487,0.49,0.549
NCI-H23,0.571,0.493,0.307,0.216,0.233,0.333,0.314,0.313,0.346,0.273,0.215,0.213,0.202,0.199,0.203,0.756,–,0.724,0.683,0.867
NCI-H322M,1.18,1.06,0.716,0.699,0.479,0.71,0.657,0.681,0.657,0.53,0.77,0.835,0.669,0.441,0.489,0.879,0.862,0.728,0.849,0.8
NCI-H441,0.228,0.26,0.231,0.198,0.198,0.29,0.262,0.262,0.275,0.234,0.271,0.371,0.337,0.293,0.256,0.658,–,0.802,0.763,0.991
NCI-H460,0.909,0.991,0.811,0.35,0.272,0.47,0.509,0.518,0.501,0.0841,0.0345,0.0356,0.0279,0.034,0.0328,0.528,0.576,0.527,0.512,0.56
NCI-H520,0.628,0.595,0.374,0.297,0.221,0.529,0.498,0.579,0.607,0.347,0.212,0.214,0.214,0.254,0.239,0.704,0.543,0.503,0.363,0.464
NCI-H596,1.02,0.873,0.845,0.847,0.855,1.01,0.961,1.09,1.01,0.775,0.9,1.01,–,0.696,0.739,0.723,0.703,0.722,–,0.718
NCI-H647,0.728,0.821,0.344,0.241,0.209,0.408,0.452,0.432,0.334,0.215,0.105,0.141,0.127,0.12,0.103,0.513,0.504,0.47,0.605,0.441
NCI-H650,0.509,0.534,0.227,0.294,0.223,0.362,0.314,0.285,0.323,0.28,0.627,0.652,0.489,0.314,0.315,0.497,0.388,0.475,0.476,0.437
NCI-H661,0.688,0.61,0.459,0.339,0.332,0.595,0.618,0.564,0.555,0.479,0.937,0.771,0.628,0.534,0.452,0.294,0.296,0.281,0.267,0.31
NCI-H727,0.697,0.672,0.382,0.605,0.418,0.85,0.764,0.954,0.944,0.723,0.499,0.289,0.339,0.288,0.407,–,–,0.483,0.528,0.533
NCI-H838,0.528,0.381,0.293,0.296,0.243,0.502,0.465,0.445,0.458,0.281,0.213,0.188,0.296,0.191,0.165,0.588,0.513,0.49,0.452,0.603
NCI-H1355,0.826,0.583,0.517,0.305,0.297,0.401,0.332,0.359,0.351,0.385,0.538,0.483,0.454,0.298,0.258,0.441,0.456,0.427,0.442,0.408
NCI-H1437,0.38,0.324,0.313,0.221,0.203,0.621,0.555,0.513,0.522,0.522,0.995,0.825,0.633,0.445,0.372,0.317,0.285,0.332,0.363,0.369

Cell Line,relative viability ([1]; first compound 0.04 µM),relative viability ([1]; first compound 0.1265 µM),relative viability ([1]; first compound 0.4 µM),relative viability ([1]; first compound 1.265 µM),relative viability ([1]; first compound 4 µM),relative viability ([2]; first compound 0.001 µM),relative viability ([2]; first compound 0.003162 µM),relative viability ([2]; first compound 0.01 µM),relative viability ([2]; first compound 0.03162 µM),relative viability ([2]; first compound 0.1 µM),relative viability ([3]; first compound 0.04 µM),relative viability ([3]; first compound 0.1265 µM),relative viability ([3]; first compound 0.4 µM),relative viability ([3]; first compound 1.265 µM),relative viability ([3]; first compound 4 µM),relative viability ([4]; first compound 0.04 µM),relative viability ([4]; first compound 0.1265 µM),relative viability ([4]; first compound 0.4 µM),relative viability ([4]; first compound 1.265 µM),relative viability ([4]; first compound 4 µM)
NCI-H1650,0.18,0.166,0.185,0.201,0.187,0.468,0.5,0.439,0.491,0.369,0.188,0.182,0.194,0.201,0.179,0.436,0.581,0.351,0.362,0.341
NCI-H1651,0.96,0.936,0.824,0.682,0.76,0.592,0.563,0.601,0.591,0.58,0.942,0.844,0.828,0.69,0.658,0.321,0.327,0.277,0.321,0.311
NCI-H1666,0.723,0.726,0.545,0.625,0.569,0.769,0.601,0.724,0.795,0.794,0.927,0.964,0.815,0.674,0.726,0.564,0.488,0.524,0.548,0.579
NCI-H1734,0.646,0.867,0.571,0.424,0.331,0.542,0.508,0.522,0.491,0.293,0.182,0.172,0.165,0.192,0.157,0.403,0.458,0.383,0.388,0.433
NCI-H1755,0.814,0.877,0.808,0.492,0.381,0.693,0.699,0.726,0.746,0.748,0.451,0.528,0.441,0.394,0.278,0.528,0.519,0.616,0.618,0.677
NCI-H1792,0.927,0.99,0.923,0.444,0.521,0.652,0.609,0.529,0.541,0.186,0.565,0.446,0.465,0.428,0.311,0.237,0.41,0.197,0.322,0.284
NCI-H1915,0.379,0.279,0.197,0.183,0.184,0.25,0.265,0.257,0.274,0.253,0.331,0.465,0.267,0.186,0.219,0.371,0.331,0.372,0.374,0.364
NCI-H1975,0.227,0.268,0.178,0.168,0.169,0.4,0.408,0.436,0.385,0.285,0.198,0.161,0.162,0.174,0.142,0.421,0.415,0.394,0.459,0.426
NCI-H1993,0.925,0.898,0.839,0.777,0.672,0.636,0.635,0.52,0.565,0.443,0.725,0.826,0.787,0.696,0.674,0.423,0.5,0.484,0.523,0.393
NCI-H2009,0.765,0.571,0.301,0.305,0.243,0.343,0.332,0.403,0.415,0.308,0.929,0.68,0.54,0.328,0.348,0.492,0.434,0.481,0.481,0.493
NCI-H2023,0.628,0.61,0.206,0.206,0.155,0.234,0.232,0.213,0.182,0.0828,0.317,0.386,0.153,0.138,0.14,0.417,0.443,0.396,0.42,0.458
NCI-H2085,0.751,0.801,0.58,0.451,0.366,0.562,0.542,0.546,0.581,0.52,0.436,0.404,0.323,0.372,0.344,0.655,0.844,0.632,0.753,0.814
NCI-H2087,0.603,0.55,0.51,0.33,0.36,0.3,0.356,0.308,0.27,0.228,0.172,0.175,0.204,0.135,0.158,0.382,0.45,0.402,0.452,0.546
NCI-H2126,0.984,0.975,0.648,0.655,0.591,0.586,0.612,0.58,0.52,0.588,0.811,0.723,0.547,0.492,0.485,0.515,0.526,0.53,0.516,0.538
NCI-H2347,–,0.768,0.844,0.525,0.572,0.595,0.676,0.567,0.65,0.659,0.472,0.393,0.515,0.453,0.36,0.34,0.236,0.383,0.386,0.41
NCI-H2405,0.88,0.905,0.828,0.66,0.538,0.74,0.781,0.767,0.722,0.632,0.798,0.654,0.59,0.431,0.445,0.358,0.422,0.378,0.38,0.368
